Measured values reported in PMC7415810, “A novel nucleolin-binding peptide for Cancer Theranostics” (Theranostics, 2020).

Experiments:
MDA-MB-231 = assay: Whole-cell binding assay on OBOC peptide beads; type: cell-based, human; conditions: peptide on TentaGel beads incubated with cells at 10^6 cells/ml; repeated 3 times
Protocol: (§1) The beads were washed extensively with double-distilled water and phosphate-buffered saline (PBS; Welgene Inc., Korea) before screening. Cancer and normal cells were detached from culture dishes with trypsin/EDTA (Gibco), washed with their corresponding culture medium, resuspended at 10^6 cells/ml, and incubated with OBOC beads in Petri dishes in a humidified CO2 incubator at 37 °C with shaking (60 rpm). Beads bound by cells appeared under a microscope as rosettes in which a central bead was covered by one or more layers of cells. The positive beads were picked with a pipette under an inverted microscope, treated with guanidine-HCL (8 M, 20 min) to remove cells and proteins on the bead surface, and subjected to a second round of screening with normal breast epithelial cells to eliminate false positive binding.
(§2) Note : Semiquantitative relative binding activity: “++++” very strong binding (>40 cells per bead), “+++” strong binding (30
(§3) -20 cells per bead), “+ +” moderate binding (20 - 10 cells per bead), “+” weak binding (5-10 cells per bead), “-” no binding. […]
(§4) Figure S1. A, Steps performed in peptide library synthesis and screening. 1, The split-mix synthesis method was performed to construct the combinatorial OBOC libraries. […]
(§5) sized. 3, OBOC libraries were incubated with cancer cells in a CO2 incubator. 4, Beads carrying ligands with an affinity for cell surface molecules became covered with cells. 5, The positive beads were picked with a pipette under an inverted microscope. 6, The peptide sequences for positive beads were determined by Edman microse - […]
(§6) peptide libraries. B, The binding specificities of the peptides against cancer cell and normal cells were deter- […]
(§7) breast and colorectal cancer cells and normal breast and colorectal cells were re-suspended at 10^6 cells/ml and incubated with beads. All experiments were repeated 3 times. Scale bar, 200 μm.

MCF-10A = assay: Whole-cell binding assay on OBOC peptide beads; type: cell-based, human; conditions: peptide on TentaGel beads incubated with cells at 10^6 cells/ml; repeated 3 times
Protocol: as §1, §2, §3, §4, §5, §6, §7

[1] = In vitro stability test in human serum; conditions: 100 μM stock diluted 10-fold in 100% human serum, 37 °C, 0-24 h; analytical HPLC; triplicate
Protocol: Stock solutions of peptides (100 μM) were diluted by a factor of 10 with pre-warmed 100% human serum (Sigma-Aldrich, St. Louis, MO, USA) and incubated at 37 °C for 0, 3, 6, 9, and 24 h. Controls with peptides in PBS were included. The action was stopped by denaturing the serum proteins with urea at a final concentration of 3 M at 4 °C for 10 min, followed by precipitation of serum proteins with trichloroacetic acid at a final concentration of 7% (v/v) (4 °C, 10 min) and centrifugation (17,000 × g, 10 min). The supernatant of each sample was recovered and run on an analytical column using a linear gradient of 5-65% solvent B for 30 min at a flow rate of 1 ml/min, where solvent A was water containing 0.1% TFA and solvent B was acetonitrile containing 0.1% TFA. The percentage of peptide remaining in serum-treated samples was determined by comparing the height of the peptide peak obtained at each time point with that of the peptide peak obtained at the 0 time point. […]
(§8) bated at 37 °C for 0, 3, 6, 9, and 24 h. The portion of serum-treated peptide remaining was determined by calcu-lating the height of the respective elution peak in analytical-HPLC and comparing it with control without incuba- […]
Plasma peptide concentrations were quantified by ELISA, and pharmacokinetic profiles were analyzed using Phoenix WinNonlin 8.1 (Pharsight Corporation, Mountain View, CA, USA). […]

[2] = In vivo stability test (plasma pharmacokinetics after single intravenous injection); conditions: mouse
Protocol: After 15 min of centrifugation at 5,000 rpm and 4 °C, the plasma was obtained and stored at -80 °C. Plasma peptide concentrations were quantified by ELISA, and pharmacokinetic profiles were analyzed using Phoenix WinNonlin 8.1 (Pharsight Corporation, Mountain View, CA, USA). The area under the plasma concentration-time curve (AUC), distribution half-time (T1/2), maximum plasma concentration (Cmax) and time required to reach maximum plasma concentration (Tmax) values were directly determined from the experimental data. […]
as §8
Plasma peptide concentrations were quantified by ELISA, and pharmacokinetic profiles were analyzed using Phoenix WinNonlin 8.1 (Pharsight Corporation, Mountain View, CA, USA). The data are presented as the means ± standard deviation.

MCF-10A cells = assay: cells; conditions: Homo sapiens, MCF-10A, 48 h, read-out: IC50, MCF-10A cells
Protocol: (§9) Cancer and normal cells (1 × 10^4 cells/well) were seeded in 96-well plates, incubated for 24 h, and then treated with increasing concentrations of AGM-330, PTX, and AGM-330-PTX for 48 h. Cell viability was assessed by the CellVia WST-1 assay (Young In Frontier) according to the manufacturer's instructions. The numbers of viable cells were measured at a wavelength of 450 nm using a VersaMax ELISA plate reader (Molecular Devices, San Jose, CA, USA).
(§10) Figure S3. A-C, Cancer and normal cells (1 × 10^4 cells/well) were seeded in 96-well plates. After 24 h of incuba-tion, the cells were treated with an increasing concentration of dimeric or tetrameric AGM-330 for 48 h. The viability of cells grown in 0 % FBS (A), 5 % FBS (B) or 10 % FBS (C) was assessed by a CellVia WST-1 assay (Young In Frontier, Seoul, Korea) according to the manufacturer’s instruction. The numbers of viable cells were measured at a wavelength of 450 nm using an VersaMax ELISA plate reader (Molecular Devices). D, E, Binding specificity of AGM-330. A whole-cell binding assay was performed to determine the cell binding of AGM-330 in 1 % FBS (D) or 5 % FBS (E). Scale bar, 200 μm.

MDA-MB-231 cells = assay: cells; conditions: Homo sapiens, MDA-MB-231, 48 h, read-out: IC50, MDA-MB-231 cells
Protocol: as §9, §10

MDA-MB-231-luc xenograft = assay: Tumorigenesis experiment, MDA-MB-231-luc breast cancer xenograft; conditions: tail vein twice a week; for average tumor volume: day 21, n = 5; for final average tumor weight: n = 5
Protocol: All animal experiments were performed in accordance with IACUC guidelines (GIST-2019-040). For tumorigenesis experiments, anesthetized 6-week-old female NOD-scid Il2rg^-^/^- mice (NPG^TM, VITALSTAR) were inoculated in the mammary fat pad with 1 × 10^6 MDA-MB-231-luc cells in a 100 μl volume (n = 5 for each group). After tumor cell inoculation, when the tumor volume reached approximately 100 mm^3, the mice were randomly divided into the following five groups: (i) control, (ii) low-dose paclitaxel (2 mg/kg), (iii) high-dose paclitaxel (10 mg/kg), (iv) AGM-330 (16.68 mg/kg, molar equivalent to 2 mg/kg of PTX), and (v) AGM-330-PTX (19.05 mg/kg, molar equivalent to 2 mg/kg of PTX). The tumor size was measured twice a week, and the tumor volume was calculated with the following formula: volume (mm^3) = [length (mm)] × [width (mm)]^2 × 0.5. For the bioluminescent imaging experiment, D-luciferin (150 mg/kg; PerkinElmer) was intraperitoneally injected into each mouse, and an IVIS 100 imaging system (Xenogen, Corporation, Alameda, CA) was used for bioluminescent monitoring. Mice were anesthetized with vaporized isofurane (BK Pharm, Ilsan, Korea) and placed in an imaging chamber. After 10 min, each animal was imaged with an exposure time of 1 min. All bioluminescent image data were obtained using Living Image software (version 4.5.2, PerkinElmer). Photons detected from tumors were converted to average radiance values (photon/sec/cm^2/sr), which are quantitative data obtained from a region of […] (ROI) and include the photons emitted by bioluminescent cells from an assigned rectangular area over the whole body of each mouse.
A, Cell proliferation inhibition by AGM-330-PTX treatment was determined for 48 h by the WST assay in multiple breast and colorectal cancer cells and in normal cells. B, Schematic representation of the experimental protocol as described in the materials and methods section. Anesthetized 6‑week-old […] NPG mice were inoculated with a 1:1 mix of Matrigel and 1 × 10^6 MDA-MB-231-luc cells into the mammary fat pad. When the volume of primary tumors reached approximately 100 mm^3, tumor-bearing mice were treated with vehicle (PBS), PTX (2 or 10 mg/kg), AGM-330 (16.68 mg/kg, molar equivalent to 2 mg/kg of PTX), or AGM-330-PTX (19.05 mg/kg, molar equivalent to 2 mg/kg of PTX; n = 5/group). C-E, The therapeutic effect of AGM-330-PTX was evaluated in breast cancer xenograft models. C, Primary tumor volume was measured twice a week until the day of sacrifice. The primary tumor volume was calculated by the formula volume (mm^3) = (length (mm)) × (width (mm))^2 × 0.5. D, On the day of sacrifice, all primary tumors were isolated, and (E) the primary tumor weights were evaluated. F-I, Immunohistochemistry (IHC) sections of representative tumors with Ki-67 (F,H) and TUNEL (G,I) staining. Nuclei were stained with DAPI (blue). Scale bar, 50 µm. Bar graphs represent the mean ± SD, and statistical analyses were performed by one-way ANOVA with Dunnett's multiple comparison. *, **, and *** indicate P < 0.05, P < 0.01, and P < 0.001, respectively.
Following in vitro proliferation analysis on cancer lines, we investigated whether AGM-330-PTX could be a potential therapeutic agent in vivo. We inoculated MDA-MB-231-luc cells into the mammary fat pad of NPG mice. After the […] tumors grew to 100 mm^3, comparative efficacy studies were performed by dividing the animals into five groups (n = 5/group) treated with vehicle (PBS), PTX (2 or 10 mg/kg, respectively), AGM-330 (16.68 mg/kg, molar equivalent to 2 mg/kg of PTX), or AGM-330-PTX (19.05 mg/kg, molar equivalent to 2 mg/kg of PTX) twice a week by tail vein injection (Figure 5B). Tumor growth was monitored by measuring volumes twice a week with a caliber rule over the course of 3 weeks.
Figure S11. A-E, NPG TM mice bearing MDA-MB-231-luc tumors were treated twice a week for 21 days with […]

[3] = target: T1, full length recombinant NCL (OriGene) (UniProt P19338 1-710); assay: SPR; Biacore T-200, 25 °C; full length recombinant NCL amine-coupled on CM5 (about 1000 RU); AGM-330 20 nM - 2.5 μM injected at 30 μl/min; HBS-EP (10 mM HEPES pH 7.4, 0.15 M NaCl, 3.4 mM EDTA, 0.05% Triton-X 100); KD = kd/ka; conditions: both partners purified
T1 construct: nucleolin, full length recombinant protein from OriGene; no catalogue number, species or tags are printed; source: bought: OriGene
T1 sequence (P19338 whole entry): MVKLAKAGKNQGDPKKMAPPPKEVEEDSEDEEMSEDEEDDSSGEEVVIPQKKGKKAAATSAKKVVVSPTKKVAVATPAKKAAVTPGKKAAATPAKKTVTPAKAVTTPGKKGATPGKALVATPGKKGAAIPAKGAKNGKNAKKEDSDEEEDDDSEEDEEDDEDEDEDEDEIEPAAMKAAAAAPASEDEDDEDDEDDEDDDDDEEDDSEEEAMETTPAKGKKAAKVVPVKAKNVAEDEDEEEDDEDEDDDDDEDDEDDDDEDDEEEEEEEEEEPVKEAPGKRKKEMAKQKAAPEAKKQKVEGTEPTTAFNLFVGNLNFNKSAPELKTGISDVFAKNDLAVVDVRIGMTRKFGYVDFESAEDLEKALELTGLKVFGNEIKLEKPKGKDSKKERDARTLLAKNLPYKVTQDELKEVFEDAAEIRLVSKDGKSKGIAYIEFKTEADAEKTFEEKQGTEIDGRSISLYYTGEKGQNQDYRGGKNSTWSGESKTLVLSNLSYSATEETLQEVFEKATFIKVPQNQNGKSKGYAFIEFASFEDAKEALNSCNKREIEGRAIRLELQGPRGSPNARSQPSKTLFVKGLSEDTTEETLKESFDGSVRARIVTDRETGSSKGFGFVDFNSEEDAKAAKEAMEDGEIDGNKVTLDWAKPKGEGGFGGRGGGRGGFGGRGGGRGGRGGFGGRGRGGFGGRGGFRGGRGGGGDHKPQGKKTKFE

RWLKNKKAR [AGM-334, 9mer peptide hit from OBOC screening]
Semiquantitative relative binding activity, MDA-MB-231 (MDA-MB-231): ++ (moderate binding (20 - 10 cells per bead))
Semiquantitative relative binding activity, MCF-10A (MCF-10A): +++ (strong binding (30 -20 cells per bead))

CSCC[C@H](NC(=O)[C@H](C)NC(=O)CNC(=O)[C@H](Cc1c[nH]cn1)NC(=O)[C@@H](N)CCCNC(=N)N)C(=O)N[C@H](C(=O)N[C@@H](Cc1ccc(O)cc1)C(=O)N[C@@H](CC(C)C)C(=O)N[C@@H](CCCCN)C(=O)O)C(C)C [AGM-330m]
degradation after incubation with serum [1]: rapidly degraded
Cmax [2]: 1270 ± 120 ng/mL
Tmax [2]: 10 min

CC(=O)O[C@H]1C(=O)[C@@]2(C)[C@H]([C@H](OC(=O)c3ccccc3)[C@]3(O)C[C@H](OC(=O)[C@H](O)[C@@H](NC(=O)c4ccccc4)c4ccccc4)C(C)=C1C3(C)C)[C@]1(OC(C)=O)CO[C@@H]1C[C@@H]2O [PTX, paclitaxel, reference compound]
IC50 (MCF-10A cells): 450 nM
IC50 (MDA-MB-231 cells): 370 nM
average tumor volume (MDA-MB-231-luc xenograft; 2 mg/kg): 1671 ± 199 mm^3
final average tumor weight (MDA-MB-231-luc xenograft; 2 mg/kg): 2.1 ± 0.4 g
average tumor volume (MDA-MB-231-luc xenograft; 10 mg/kg): 988 ± 78 mm^3
final average tumor weight (MDA-MB-231-luc xenograft; 10 mg/kg): 1.5 ± 0.1 g

RFLKNKKAR [AGM-333, 9mer peptide hit from OBOC screening]
Semiquantitative relative binding activity, MDA-MB-231 (MDA-MB-231): ++ (moderate binding (20 - 10 cells per bead))
Semiquantitative relative binding activity, MCF-10A (MCF-10A): +++ (strong binding (30 -20 cells per bead))

KRRRRERAG [AGM-336, 9mer peptide hit from OBOC screening]
Semiquantitative relative binding activity, MDA-MB-231 (MDA-MB-231): +++ (strong binding (30 -20 cells per bead))
Semiquantitative relative binding activity, MCF-10A (MCF-10A): +++ (strong binding (30 -20 cells per bead))

FGRLKKPLK [AGM-335, 9mer peptide hit from OBOC screening]
Semiquantitative relative binding activity, MDA-MB-231 (MDA-MB-231): + (weak binding (5-10 cells per bead))
Semiquantitative relative binding activity, MCF-10A (MCF-10A): + (weak binding (5-10 cells per bead))

ADHRHRRSG [AGM-331]
Semiquantitative relative binding activity, MDA-MB-231 (MDA-MB-231): ++++ (very strong binding (>40 cells per bead))
Semiquantitative relative binding activity, MCF-10A (MCF-10A): ++ (moderate binding (20 - 10 cells per bead))

KRRRKAPTD [AGM-337, 9mer peptide hit from OBOC screening]
Semiquantitative relative binding activity, MDA-MB-231 (MDA-MB-231): + (weak binding (5-10 cells per bead))
Semiquantitative relative binding activity, MCF-10A (MCF-10A): + (weak binding (5-10 cells per bead))

AVARARRRR [AGM-332]
Semiquantitative relative binding activity, MDA-MB-231 (MDA-MB-231): +++ (strong binding (30 -20 cells per bead))
Semiquantitative relative binding activity, MCF-10A (MCF-10A): ++ (moderate binding (20 - 10 cells per bead))

B1: AGM-330 (tetrameric multiple-antigen-peptide form) (peptide)
peptide: RHGAMVYLK
modifications: PEG12 after the C-terminal Lys of each RHGAMVYLK arm (RHGAMVYLK-PEG12-OH), joined to a trilysine core
notes: arm of the dendrimer; picked from a one-bead-one-compound library on MDA-MB-231 cells; The core is not written as a chain; also called tetrameric AGM-330; source: synthetic peptide (AnyGen, solid-phase peptide synthesis)
Kd [3]: 57.7 ± 12 nM
